Test results from the supplement of paper PMC13380429.

Columns and labels:
Conditions in all cases: 72 h
[1] = test system: U2OS; test: cell viability relative to DMSO; higher = less toxic
[2] = test system: Caco-2; test: as above
[3] = test system: HepG2; test: as above
[4] = test system: Vero E6; test: as above
[5] = test system: Calu-3; test: as above
[6] = test system: U2OS; test: relative viability EC50 (midpoint between 100% and the lowest measured viability); higher = less toxic
[7] = test system: Caco-2; test: as above
[8] = test system: HepG2; test: as above
[9] = test system: Vero E6; test: as above
[10] = test system: Calu-3; test: as above
[11] = test system: U2OS; test: drug sensitivity score (DSS) for viability; higher = more toxic; extreme values may be limits of the assay
[12] = test system: Caco-2; test: as above
[13] = test system: HepG2; test: as above
[14] = test system: Vero E6; test: as above
[15] = test system: Calu-3; test: as above

Compound	cell viability ([1]; 1 nM) [%]	cell viability ([1]; 10 nM) [%]	cell viability ([1]; 100 nM) [%]	cell viability ([1]; 1000 nM) [%]	cell viability ([1]; 10000 nM) [%]	cell viability ([2]; 1 nM) [%]	cell viability ([2]; 10 nM) [%]	cell viability ([2]; 100 nM) [%]	cell viability ([2]; 1000 nM) [%]	cell viability ([2]; 10000 nM) [%]	cell viability ([3]; 1 nM) [%]	cell viability ([3]; 10 nM) [%]	cell viability ([3]; 100 nM) [%]	cell viability ([3]; 1000 nM) [%]	cell viability ([3]; 10000 nM) [%]	cell viability ([4]; 1 nM) [%]	cell viability ([4]; 10 nM) [%]	cell viability ([4]; 100 nM) [%]	cell viability ([4]; 1000 nM) [%]	cell viability ([4]; 10000 nM) [%]	cell viability ([5]; 1 nM) [%]	cell viability ([5]; 10 nM) [%]	cell viability ([5]; 100 nM) [%]	cell viability ([5]; 1000 nM) [%]	cell viability ([5]; 10000 nM) [%]	relative viability EC50 [6] [µM]	relative viability EC50 [7] [µM]	relative viability EC50 [8] [µM]	relative viability EC50 [9] [µM]	relative viability EC50 [10] [µM]	drug sensitivity score [11]	drug sensitivity score [12]	drug sensitivity score [13]	drug sensitivity score [14]	drug sensitivity score [15]
CN1C(C(=O)Nc2ccccn2)=C(O)c2ccccc2S1(=O)=O [piroxicam]	98.5	94.9	99.3	95.9	101	93.6	96	104	100	100	92	107	92.5	105	115	93.1	101	94.4	93.5	114	99.8	95.5	101	96.8	105	> 10	> 10	> 10	> 10	> 10	0	0	0	0	0
N#C/C(=C\c1ccc(O)c(O)c1)C(=O)OCCc1cccs1 [2-TEDC]	98.6	101	96.1	99.2	95.2	96.3	102	91.8	101	99.3	93.8	96.1	104	86	91.3	98.5	97.9	96.7	93.6	102	91.1	94.2	96.1	99.4	93.9	> 10	> 10	> 10	> 10	> 10	0	0	1	0	0
COc1ccc(N(C(=O)Oc2c(C)cccc2C)c2ccnc(Nc3ccc(N4CCN(C)CC4)cc3)n2)c(OC)c1 [WH-4-023]	101	96.8	98.1	107	99.8	101	89.4	102	114	103	92.7	91.9	93.2	100	101	95.4	97.4	96.7	93.7	84.8	93.3	104	95.8	104	89.8	> 10	> 10	> 10	> 10	> 10	0	0	0	0.2	0
CC(=O)NS(=O)(=O)c1ccc(NC(=O)c2ccccc2C(=O)O)cc1 [phthalylsulfacetamide]	98.8	94.6	103	99.2	102	91.3	98.4	94.2	96.4	94.3	102	104	91.6	105	101	102	109	98.2	104	102	100	102	96.8	108	101	> 10	> 10	> 10	> 10	> 10	0	0	0	0	0
CCOc1ccc(S(=O)(=O)O)c2cccnc12 [actinoquinol]	96.3	98.1	94	94.6	95.5	91.1	78	87.3	102	95.1	91	101	95.1	98.5	110	95.4	90.2	92.5	95.1	101	99.4	99.4	99	99.8	99.1	> 10	> 10	> 10	> 10	> 10	0	0	0	0	0
O=C(O)CCCc1ccccc1 [phenylbutyrate]	99.9	105	104	103	103	79.8	100	90.4	97	107	111	81.8	105	104	96.1	106	95.6	104	93.2	106	94.6	112	113	109	105	> 10	> 10	> 10	> 10	> 10	0	0	0	0	0
CS(=O)(=O)N1CCc2c(-c3cnc(N)nc3)nc(N3CCOCC3)nc21	99.5	97.5	99.9	92	47.1	93.3	97.6	96.9	72	33.3	111	101	95.3	72.6	33.3	104	108	95.3	87.4	41.7	94.2	96.3	98.2	70.5	29.3	1.98	1.19	1.22	1.67	1.17	4.2	7	6.9	5.2	7.6
CCOC(=O)c1ccc(C#Cc2ccc3c(c2)C(C)(C)CCS3)nc1 [tazarotene]	93.7	98	92.2	92.2	93.6	91.3	96.3	96.4	86	83.8	108	92.8	119	105	110	101	97.7	94.9	94.9	110	99.5	101	100	87.5	91.2	> 10	> 10	> 10	> 10	> 10	0	0.7	0	0	0.7
O=C(O)c1cc(O)c2c3nc4ccccc4oc-3cc(=O)c2n1 [pirenoxine]	106	99.7	102	103	103	99.6	103	108	83.6	81.7	103	113	89.5	99.6	92.6	105	107	96.6	101	95	108	109	102	106	99.4	> 10	> 10	> 10	> 10	> 10	0	1.9	0	0	0
COc1cc2c(cc1OC)[C@@H](Cc1cc(OC)c(OC)c(OC)c1)[N+](C)(CCCOC(=O)CC/C=C/CCC(=O)OCCC[N+]1(C)CCc3cc(OC)c(OC)cc3[C@H]1Cc1cc(OC)c(OC)c(OC)c1)CC2 (stereo not given in full) [mivacurium]	102	99.8	98.6	96.3	100	107	98.9	109	123	94.5	101	95.2	99.4	84.3	97.7	106	112	105	97.7	93	112	97.6	101	89.7	94	> 10	> 10	> 10	> 10	> 10	0	0	0	0	0
CN1C(=O)COc2c(C(=O)NC3CN4CCC3CC4)cc(Cl)cc21 (stereo not given) [azasetron]	101	91.4	95.6	99	99.2	98.4	94.9	96.6	98.7	98.5	91.6	99	87.9	94.5	96.2	102	94.4	91.8	86.2	105	91.4	93.1	103	110	111	> 10	> 10	> 10	> 10	> 10	0	0	0	0	0
CN(C)CCOC(c1ccccc1)c1ccccc1.Cn1c(=O)c2[nH]c(Cl)nc2n(C)c1=O [dimenhydrinate]	102	96.5	98	102	106	96.3	88.1	88.1	104	99.5	95.7	103	110	107	106	93.8	99.7	96.2	100	103	103	94.4	97.2	99.2	98	> 10	> 10	> 10	> 10	> 10	0	0	0	0	0
COc1cc(Oc2ccnc3cc(OC)c(OC)cc23)ccc1NC(=O)NC(C)c1nccs1 (stereo not given)	95.1	98.8	93.8	95.6	90.1	100	104	87.7	97.2	88.2	93.1	104	91.7	98.8	87.9	100	101	91	96.2	95.6	94.5	98.7	91.6	113	97.3	> 10	> 10	> 10	> 10	> 10	0	0	0	0	0
COc1ccc(S(=O)(=O)Nc2cc(Cl)cc(Cl)c2OC)cc1N1CCNCC1	109	98	105	96.3	100	102	97.9	97.9	92.9	94.7	98.9	90.2	103	98.7	102	102	103	99.1	98.7	91.2	99	103	99.2	106	111	> 10	> 10	> 10	> 10	> 10	0	0	0	0	0
